The subject of experiment [1] is BaF3. The experiment in a line: cells. Conditions: Mus musculus, BaF3, 72 h.
Description: Antiproliferative activity against mouse BAF3 cells expressing TEL-JAK2 kinase after 72 hrs by alamar blue assay
The nature of a further experiment: cells. Conditions: Mus musculus, CTLL-2, 72 h.
Experiment [2] concerns the target T1, Tyrosine-protein kinase JAK3 (Homo sapiens, UniProt P52333).
T1 sequence (P52333 whole entry): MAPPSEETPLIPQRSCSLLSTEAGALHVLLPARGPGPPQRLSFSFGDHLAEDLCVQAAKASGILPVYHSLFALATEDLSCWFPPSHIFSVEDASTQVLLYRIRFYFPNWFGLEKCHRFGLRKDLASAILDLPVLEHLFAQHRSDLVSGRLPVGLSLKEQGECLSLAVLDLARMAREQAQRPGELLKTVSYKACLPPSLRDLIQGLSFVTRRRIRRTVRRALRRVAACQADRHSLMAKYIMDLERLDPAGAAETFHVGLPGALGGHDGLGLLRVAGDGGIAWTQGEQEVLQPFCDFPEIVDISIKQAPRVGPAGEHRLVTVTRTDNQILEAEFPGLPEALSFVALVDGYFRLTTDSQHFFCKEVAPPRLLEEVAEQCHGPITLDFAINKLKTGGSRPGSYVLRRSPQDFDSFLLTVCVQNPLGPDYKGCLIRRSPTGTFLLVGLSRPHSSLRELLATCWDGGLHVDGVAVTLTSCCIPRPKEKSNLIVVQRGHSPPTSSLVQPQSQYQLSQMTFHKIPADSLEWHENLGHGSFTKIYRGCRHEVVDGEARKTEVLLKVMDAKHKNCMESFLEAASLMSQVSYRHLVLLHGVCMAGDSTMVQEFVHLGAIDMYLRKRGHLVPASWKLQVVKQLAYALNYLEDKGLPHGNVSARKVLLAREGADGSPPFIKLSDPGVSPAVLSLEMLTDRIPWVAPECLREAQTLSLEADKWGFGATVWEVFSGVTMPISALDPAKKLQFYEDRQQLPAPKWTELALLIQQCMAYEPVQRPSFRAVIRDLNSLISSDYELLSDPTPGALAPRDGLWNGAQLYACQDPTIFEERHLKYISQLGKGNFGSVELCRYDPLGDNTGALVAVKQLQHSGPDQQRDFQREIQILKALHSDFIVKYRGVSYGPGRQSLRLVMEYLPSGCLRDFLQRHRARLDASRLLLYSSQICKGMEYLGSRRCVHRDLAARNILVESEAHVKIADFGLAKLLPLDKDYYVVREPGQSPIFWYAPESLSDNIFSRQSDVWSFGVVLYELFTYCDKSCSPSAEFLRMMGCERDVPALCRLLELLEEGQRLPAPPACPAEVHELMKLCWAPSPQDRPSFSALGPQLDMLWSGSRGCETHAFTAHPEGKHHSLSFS
Description: Inhibition of GST-tagged JAK3 kinase

The test system of experiment [3] is BaF3. The experiment in a line: cells. The note with it: Mus musculus, BaF3, 72 h. The source holds these as a separate data set.
Description: Antiproliferative activity against mouse BAF3 cells expressing TEL-JAK3 kinase after 72 hrs by alamar blue assay
In experiment [4] the target is Tyrosine-protein kinase JAK2 (Homo sapiens, UniProt O60674).
Tyrosine-protein kinase JAK2, sequence (O60674 whole entry): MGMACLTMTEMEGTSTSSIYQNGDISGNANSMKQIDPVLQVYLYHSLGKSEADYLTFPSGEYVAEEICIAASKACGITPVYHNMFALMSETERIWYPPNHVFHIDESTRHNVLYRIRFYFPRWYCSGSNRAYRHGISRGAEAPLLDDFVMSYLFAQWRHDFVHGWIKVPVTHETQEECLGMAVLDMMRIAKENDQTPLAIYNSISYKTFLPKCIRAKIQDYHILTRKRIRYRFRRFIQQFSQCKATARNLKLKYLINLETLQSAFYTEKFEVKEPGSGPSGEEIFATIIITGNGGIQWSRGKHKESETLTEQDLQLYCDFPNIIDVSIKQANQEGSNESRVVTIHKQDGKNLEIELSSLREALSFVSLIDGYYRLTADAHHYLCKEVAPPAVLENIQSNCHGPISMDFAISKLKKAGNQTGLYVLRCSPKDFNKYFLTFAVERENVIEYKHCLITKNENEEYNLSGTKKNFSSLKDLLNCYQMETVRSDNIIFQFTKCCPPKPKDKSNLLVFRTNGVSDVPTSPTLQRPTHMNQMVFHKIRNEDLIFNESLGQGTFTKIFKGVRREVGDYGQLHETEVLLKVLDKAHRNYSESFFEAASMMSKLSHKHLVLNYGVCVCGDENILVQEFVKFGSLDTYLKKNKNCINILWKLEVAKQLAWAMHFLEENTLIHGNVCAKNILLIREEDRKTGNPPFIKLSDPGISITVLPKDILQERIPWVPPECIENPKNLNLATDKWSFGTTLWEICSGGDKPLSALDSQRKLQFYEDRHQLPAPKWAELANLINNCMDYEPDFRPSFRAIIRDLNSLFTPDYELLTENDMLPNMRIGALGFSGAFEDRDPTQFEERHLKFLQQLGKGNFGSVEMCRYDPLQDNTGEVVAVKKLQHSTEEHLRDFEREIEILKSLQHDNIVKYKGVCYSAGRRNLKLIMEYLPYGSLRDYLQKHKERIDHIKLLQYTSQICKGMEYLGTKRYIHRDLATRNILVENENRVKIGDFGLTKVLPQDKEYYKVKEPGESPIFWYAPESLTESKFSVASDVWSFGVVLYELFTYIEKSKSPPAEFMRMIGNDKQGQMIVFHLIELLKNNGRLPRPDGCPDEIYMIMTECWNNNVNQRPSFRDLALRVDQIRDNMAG
Description: Inhibition of GST-tagged JAK2 kinase

In the case of `Cc1cnc(Nc2ccc(N3CCOCC3)cc2)nc1-c1ccc(C(=O)NCC#N)cc1`, the IC50 was 433 nM with BaF3 [1]; 240 nM in the experiment “cells”; 85 nM in experiment [2]; 5960 nM in the experiment with BaF3 [3]; 8 nM in experiment [4].

Regarding `N#CCNC(=O)c1ccc(-c2ccnc(Nc3cccc(N4CCOCC4)c3)n2)cc1`, the IC50 in the experiment on BaF3 [1] stood at 2560 nM; in the experiment “cells” it was 3770 nM; in experiment [2] it was 1880 nM; with BaF3 [3], 7450 nM.

As to `COc1cc(-c2ccnc(Nc3ccc(N4CCOCC4)cc3)n2)ccc1O`, the IC50 with BaF3 [1] is 380 nM; in “cells” it was below 160 nM; in experiment [2], 62 nM; in the experiment on BaF3 [3], 2550 nM; in experiment [4], 3 nM.

For the molecule `N#CCNC(=O)c1ccc(-c2ccnc(Nc3ccc(N4CCOCC4)c(F)c3)n2)cc1`, the IC50 in the experiment with BaF3 [1] worked out at 1140 nM; in the experiment “cells”, 1260 nM; in experiment [2], 274 nM; in the experiment with BaF3 [3], 3280 nM; in experiment [4], 116 nM.

For `CN1CCN(Cc2cccc(Nc3nccc(-c4ccc(NS(C)(=O)=O)cc4)n3)c2)CC1`, the IC50 was 941 nM in the experiment with BaF3 [1]; 5180 nM in “cells”; 960 nM in experiment [2]; 3140 nM with BaF3 [3]; 14 nM in experiment [4].

On to `N#CCNCc1cccc(-c2ccnc(Nc3ccc(N4CCOCC4)cc3)n2)c1`, for which the IC50 was 9820 nM in the experiment with BaF3 [1]; 8030 nM in “cells”; above 1000 nM in experiment [2]; above 20000 nM in the experiment with BaF3 [3]; 132 nM in experiment [4].

Regarding `c1ccc(-c2ccnc(Nc3ccc(N4CCOCC4)cc3)n2)cc1`, in experiment [4], the IC50 stood at 467 nM.

For the molecule `NS(=O)(=O)c1ccc(-c2ccnc(Nc3ccc(N4CCOCC4)cc3)n2)cc1`, the IC50 in experiment [4] stood at 83 nM. This IC50 is about 5.6-fold lower than that of the molecule before.

As for `CN1CCN(c2ccc(Nc3nccc(-c4ccc(C(=O)NCC#N)cc4)n3)cc2)CC1`, the IC50 with BaF3 [1] turned out to be 525 nM; in “cells”, 1830 nM; in experiment [2], 192 nM; with BaF3 [3] it was 2050 nM.

On to `COc1cc(-c2ccnc(Nc3ccc(N4CCOCC4)cc3)n2)ccc1C(=O)NCC#N`, for which the IC50 was 205 nM in the experiment on BaF3 [1]; 245 nM in “cells”; 9 nM in experiment [2]; 275 nM in the experiment on BaF3 [3]; 30 nM in experiment [4].

As to `N#CCNC(=O)c1ccc(-c2ccnc(Nc3ccc(N4CCSCC4)cc3)n2)cc1`, the IC50 with BaF3 [1] amounted to 2200 nM; in “cells”, 1510 nM; in the experiment on BaF3 [3], 6240 nM; in experiment [4], 69 nM.

With `O=C(NCc1ccco1)c1ccc(-c2ccnc(Nc3ccc(N4CCOCC4)cc3)n2)cc1`, the figures for the IC50 (in the experiment on BaF3 [1]; in experiment [4]) were 5220 nM and 202 nM, respectively.

As for `CCN(CC)CCCOc1ccc(Nc2nccc(-c3ccc(C(=O)NCC#N)cc3)n2)cc1`, the half-maximal inhibitory concentration (IC50) was determined as 840 nM in the experiment with BaF3 [1]; 3680 nM in the experiment “cells”; 362 nM in experiment [2]; 1100 nM in the experiment on BaF3 [3]; 166 nM in experiment [4].

Take `CS(=O)(=O)Nc1ccc(-c2ccnc(Nc3ccc(N4CCC(O)CC4)cc3)n2)cc1`: the IC50 with BaF3 [1] is 933 nM; in “cells” it was 1490 nM; in experiment [2], 149 nM; in the experiment on BaF3 [3], 6550 nM; in experiment [4], 6 nM.

Take `COc1cc(-c2ccnc(Nc3ccc(N4CCOCC4)cc3)n2)ccc1N`: the results for the IC50 (with BaF3 [1]; in experiment [4]) were 5620 nM and 16 nM, respectively.

Take `CS(=O)(=O)Nc1ccc(-c2ccnc(Nc3ccc(N4CCOCC4)cc3)n2)cc1`: the IC50 in the experiment with BaF3 [1] stood at 396 nM; in “cells” it was 489 nM; in experiment [2], 351 nM; in the experiment on BaF3 [3], 3940 nM; in experiment [4], 4 nM.

In turn, `N#Cc1ccc(-c2ccnc(Nc3ccc(N4CCOCC4)cc3)n2)cc1` gave an IC50 with BaF3 [1] above 20000 nM.

In the case of `CN(CC#N)C(=O)c1ccc(-c2ccnc(Nc3ccc(N4CCOCC4)cc3)n2)cc1`, the IC50 in the experiment on BaF3 [1] is 6340 nM; in “cells” it was 4170 nM; in experiment [2] it was 1420 nM; in the experiment with BaF3 [3], 16900 nM; in experiment [4], 298 nM.

As to `CC(=O)Nc1ccc(-c2ccnc(Nc3ccc(N4CCOCC4)cc3)n2)cc1`, the values for the IC50 (with BaF3 [1]; in experiment [4]) were 3110 nM and 67 nM, respectively.

For the molecule `N#CCC(=O)Nc1ccc(-c2ccnc(Nc3ccc(N4CCOCC4)cc3)n2)cc1`, the IC50 with BaF3 [1] was found to be 720 nM; in the experiment “cells”, 915 nM; in the experiment on BaF3 [3], 4200 nM.

`COc1cnc(Nc2ccc(N3CCOCC3)cc2)nc1-c1ccc(C(=O)NCC#N)cc1`: the IC50 was 8500 nM with BaF3 [1], 6160 nM in “cells” and above 20000 nM in the experiment with BaF3 [3].

For the molecule `CS(=O)(=O)Nc1ccc(-c2ccnc(Nc3ccc(CN4CCCCC4)cc3)n2)cc1`, the IC50 in the experiment on BaF3 [1] stood at 580 nM; in “cells”, 735 nM; in experiment [2], 538 nM; in the experiment on BaF3 [3] it was 730 nM; in experiment [4], 11 nM.

As for `N#CCC(=O)Nc1cccc(-c2ccnc(Nc3ccc(N4CCOCC4)cc3)n2)c1`, the IC50 with BaF3 [1] is 10300 nM; in “cells”, 18900 nM; in experiment [2], 1760 nM; with BaF3 [3] it was above 20000 nM; in experiment [4] it was 303 nM.

Turning to `N#CCNC(=O)c1ccc(-c2ccnc(Nc3ccc(N4CCOCC4)c(C(F)(F)F)c3)n2)cc1`, the IC50 in the experiment with BaF3 [1] turned out to be 1240 nM; in “cells” it was 3990 nM; in experiment [2], 2020 nM; in the experiment with BaF3 [3] it was 1710 nM.

As for `CS(=O)(=O)Nc1ccc(-c2ccnc(Nc3cccc(CN4CCC(O)CC4)c3)n2)cc1`, the IC50 in the experiment on BaF3 [1] stood at 771 nM; in “cells” it was 6760 nM; in experiment [2] it was 636 nM; in the experiment on BaF3 [3], 1940 nM; in experiment [4], 12 nM.

For `CS(=O)(=O)Nc1ccc(-c2ccnc(Nc3ccc(CN4CCOCC4)cc3)n2)cc1`, the IC50 with BaF3 [1] was 896 nM; in the experiment “cells”, 1670 nM; in experiment [2], above 1000 nM; in the experiment with BaF3 [3] it was 1940 nM; in experiment [4] it was 9 nM.

With `Cc1cc(-c2ccnc(Nc3ccc(N4CCOCC4)cc3)n2)ccc1C(=O)NCC#N`, the IC50 with BaF3 [1] is 2630 nM; in “cells”, 2040 nM; in experiment [2], above 1000 nM; in the experiment with BaF3 [3], 7570 nM; in experiment [4] it was 65 nM.

As to `NC(=O)c1ccc(-c2ccnc(Nc3ccc(N4CCOCC4)cc3)n2)cc1`, the IC50 in the experiment with BaF3 [1] worked out at 5560 nM; in experiment [4], 326 nM.

With `c1cc(-c2ccc3[nH]ccc3c2)nc(Nc2ccc(N3CCOCC3)cc2)n1`, the IC50 came out at 7130 nM in the experiment on BaF3 [1] and 33 nM in experiment [4].

For `Cc1nccn1Cc1ccc(-c2ccnc(Nc3ccc(N4CCOCC4)cc3)n2)cc1`, the IC50 in the experiment on BaF3 [1] worked out at 3730 nM; in experiment [4], 81 nM.

As for `Nc1cccc(-c2ccnc(Nc3ccc(N4CCOCC4)cc3)n2)c1`, the IC50 was determined as 8520 nM in the experiment on BaF3 [1] and 322 nM in experiment [4].

As for `CC(C)(C#N)NC(=O)c1ccc(-c2ccnc(Nc3ccc(N4CCOCC4)cc3)n2)cc1`, the IC50 in the experiment on BaF3 [1] is 3720 nM; in experiment [2] it was 3910 nM; in the experiment with BaF3 [3] it was 4250 nM; in experiment [4], 549 nM.

For `N#CCNC(=O)c1ccc(-c2ccnc(Nc3ccc(CN4CCS(=O)(=O)CC4)cc3)n2)cc1`, the IC50 in the experiment with BaF3 [1] stood at 2040 nM; in the experiment “cells” it was 7900 nM; in the experiment on BaF3 [3], 9980 nM; in experiment [4] it was 52 nM.

Turning to `Cc1cc(-c2ccnc(Nc3ccc(N4CCOCC4)cc3)n2)cc(C)c1O`, the IC50 with BaF3 [1] stood at 3520 nM; in experiment [4], 88 nM.

For orientation: IC50 means the concentration that inhibits the measured activity by half.

The record behind these values is ChEMBL document CHEMBL1154287, “Phenylaminopyrimidines as inhibitors of Janus kinases (JAKs)” (Bioorg Med Chem Lett, 2009).
